Assay [1] has as its system AU565. The assay is described as follows: Cellular antiproliferative response, Assay 2 (nuclear dye intensity). It is filed as cell-based. The note with it: Homo sapiens, 240 h; AU565, HR mutant CHEK2, Assay 2, 10-day incubation; read-out: Log10 (IC50) (converted). The method, then:
(§1) Compound A was tested in a cell line panel. Cell lines were grown in RPMI 1640, 10% FBS, 2 mM L-alanyl-L-glutamine, 1 mM Na pyruvate, or a special medium. Cells were seeded into 384-well plates and incubated in a humidified atmosphere of 5% CO2 at 37° C. The following day, Compound A was added by serial dilution in half-log steps from the highest test concentration of 30 μM and assayed over ten concentrations. A time zero untreated cell plate was also generated. At seven days post-seeding, the growth media were replaced, and the plates were re-dosed with the test compound. After a 10-day incubation period, cells were fixed and stained with a fluorescent nuclear dye. Automated fluorescence microscopy was carried out using a Molecular Devices ImageXpress Micro XL high-content imager, and images were collected with a 4× objective. 16-bit TIFF images were acquired and analyzed with MetaXpress 5.1.0.41 software.
(§2) Cell proliferation effects of Compound A was measured using the fluorescent intensity of the incorporated nuclear dye as a percent of the control (POC), where POC=(Ix/I0)×100. Ix=nuclear intensity at concentration x and I0=average nuclear intensity of the untreated vehicle wells. Cellular IC50 was calculated using nonlinear regression to a sigmoidal single-site dose response model. Curve fitting, calculations, and report generation was performed using a custom data reduction engine and MathIQ based software (AIM).

In assay [2] the test system is BT-474. The description is as above. It is filed as cell-based. The note with it: Homo sapiens, 240 h; BT-474, HR mutant BRCA2, Assay 2, 10-day incubation; read-out: Log10 (IC50) (converted). The method, then:
as §1, §2

For assay [3], the system named is CAL-51. The assay is described as above. Format: cell-based. The note with it: Homo sapiens, 240 h; CAL-51, HR mutant BRCA2, CHEK1, Assay 2, 10-day incubation; read-out: Log10 (IC50) (converted). How it is done:
as §1, §2

The subject of assay [4] is CAL-85-1. Described as above. It is filed as cell-based. The note with it: Homo sapiens, 240 h; CAL-85-1, HR mutant BRCA2, Assay 2, 10-day incubation; read-out: Log10 (IC50) (converted). How it is done: as §1, §2
The test system of assay [5] is EFM-19. The assay is described as above. Format: cell-based. The note with it: Homo sapiens, 240 h; EFM-19, HR mutant ATM, Assay 2, 10-day incubation; read-out: Log10 (IC50) (converted). How it is done:
as §1, §2

The subject of assay [6] is HCC1395. The assay is described as above. Format: cell-based. The note with it: Homo sapiens, 240 h; HCC1395, HR mutant BRCA1, BRCA2, Assay 2, 10-day incubation; read-out: Log10 (IC50) (converted). How it is done:
as §1, §2

Assay [7] has as its system HCC1428. Described as above. Format: cell-based. The note with it: Homo sapiens, 240 h; HCC1428, HR mutant BRCA2, Assay 2, 10-day incubation; read-out: Log10 (IC50) (converted). How it is done: as §1, §2
Assay [8] concerns HCC1569. The assay is described as above. It is filed as cell-based. The note with it: Homo sapiens, 240 h; HCC1569, HR mutant BRCA2, Assay 2, 10-day incubation; read-out: Log10 (IC50) (converted). The method, then: as §1, §2
Assay [9] relates to HCC1599. The description is as above. It is filed as cell-based. The note with it: Homo sapiens, 240 h; HCC1599, HR mutant BRCA2, Assay 2, 10-day incubation; read-out: Log10 (IC50) (converted). How it is done: as §1, §2
Assay [10] concerns HCC1937. Described as above. Format: cell-based. The note with it: Homo sapiens, 240 h; HCC1937, HR mutant BRCA1, Assay 2, 10-day incubation; read-out: Log10 (IC50) (converted). How it is done: as §1, §2
For assay [11], the system named is HCC202. The description is as above. Format: cell-based. The note with it: 240 h; HCC202, HR mutant BRCA2, Assay 2, 10-day incubation; read-out: Log10 (IC50) (converted). How it is done: as §1, §2
Assay [12] relates to MDA-MB-436. Described as above. Format: cell-based. The note with it: Homo sapiens, 240 h; MDA-MB-436, HR mutant BRCA1, Assay 2, 10-day incubation; read-out: Log10 (IC50) (converted). How it is done:
as §1, §2

In assay [13] the test system is HBCx-34 tumor. The assay is described as follows: Patient-derived xenograft (PDX) study with HBCx-34. Format: in vivo, Athymic Nude-Foxn1^nu mice. The note with it: HBCx-34 PDX. The method, then:
Female Athymic Nude-Foxn1^nu mice with an established growing HBCx-34 tumor between 108 and 288 mm^3 were randomized into 4 treatment groups of 10 mice each, according to the groups listed in Table 7A, tumor-bearing mice receive estrogen diluted in drinking water (β-estradiol, 8.5 mg/l), from the date of tumor implant to the end of the study. In Table 7A, the abbreviation “p.o.” refers to oral administration, the abbreviation “QD” refers to administration once a day, and the abbreviation “BID” refers to administration twice a day.
Tumors were measured and mice were weighed twice per week during the experimental period. The tumor volume (mm^3) was estimated using the formula: tumor volume (TV)=a×b2/2, where “a” and “b” were the long and the short diameter of a tumor, respectively. The TVs were used to calculate tumor growth inhibition (TGI, an indicator of antitumor activity) using the formula TGI %: (1−{T/T0/Ct/C0}/1−{C0/Ct})×100 where Tt=median tumor volume of treated at time t, T0=median tumor volume of treated at time 0, Ct=median tumor volume of control at time t and C0=median tumor volume of control at time 0. […] Tumor regression represents tumor volume less than the initial tumor volume on DO.
Female Athymic Nude-Foxn1^nu mice with an established growing HBCx-34 tumor between 108 and 288 mm^3 were randomized into 2 treatment groups of 8 mice each, according to the groups listed in Table 8A, tumor-bearing mice receive estrogen diluted in drinking water (β-estradiol, 8.5 mg/l), from the date of tumor implant to the end of the study. In Table 8A, the abbreviation “p.o.” refers to oral administration, the abbreviation “QD” refers to administration once a day.
Tumors were measured and mice were weighed twice per week during the experimental period. The tumor volume (mm^3) was estimated using the formula: tumor volume (TV)=a×b2/2, where “a” and “b” were the long and the short diameter of a tumor, respectively. The TVs were used to calculate tumor growth inhibition (TGI, an indicator of antitumor activity) using the formula TGI %: (1−{T/T0/Ct/C0}/1−{C0/Ct})×100 where Tt=median tumor volume of treated at time t, T0=median tumor volume of treated at time 0, Ct=median tumor volume of control at time t and C0=median tumor volume of control at time 0. […] Tumor regression represents tumor volume less than the initial tumor volume at DO.

Two molecules from patent publication US20260216174A1, “TREATMENT OF ER+ BREAST CANCER COMPRISING HOMOLOGOUS RECOMBINATION DEFICIENCY USING PARG INHIBITOR” (IDEAYA BIOSCIENCES, INC., priority 2023, published 2026) can be followed below.

The IC50 is the midpoint of a concentration-inhibition curve.

Structures are written as SMILES.

With `C[C@H]1CN(c2cc(S(=O)(=O)NC3(C)CC3)cc3c2cnn3-c2nnc(C(F)F)s2)C[C@H](C)N1` [Compound A, 1-(5-(difluoromethyl)-1,3,4-thiadiazol-2-yl)-4-((3S,5S)-3,5-dimethylpiperazin-1-yl)-N-(1-methylcyclopropyl)-1H-indazole-6-sulfonamide], the IC50 in assay [1] is 52.3 nM; in assay [2], 847 nM; in assay [3] it was 3530 nM; in [4], 100 nM; in assay [5] it was 689 nM; in assay [6], 30 nM. Also, the IC50 in assay [7] was 10 nM; in assay [8], 80 nM; in [9], 1310 nM; in assay [10], 220 nM; in assay [11] it was 640 nM; in [12], 52.4 nM. Further, the “Regressions (%)” value in assay [13] (100 mg/kg QD p.o., Day 45) was 100%. The “TGI (%) D45” value in [13] (100 mg/kg QD p.o., Day 45) amounted to 110%. Besides, the “partial regression (mice)” value in assay [13] (Compound A study, 100 mg/kg) is on record as “all mice achieving partial regression”.

Turning to `CC(C)C(=O)N1CCN(c2cc(S(=O)(=O)NC3(C#N)CC3)cc3c2cnn3-c2nnc(C(F)F)s2)C[C@H]1C` [Compound B], the “Regressions (%)” value in assay [13] (30 mg/kg QD p.o., Day 35) is given as 10%; in assay [13] (100 mg/kg BID p.o., Day 35), 80%; in assay [13] (100 mg/kg QD p.o., Day 35), 80%. The “TGI (%) D35” value in [13] (30 mg/kg QD p.o., Day 35) is listed as 77%; in [13] (100 mg/kg BID p.o. (200 mg/kg/day), Day 35) it was 106%; in assay [13] (100 mg/kg QD p.o., Day 35), 103%. Further, the “partial regression (mice)” value in assay [13] (30 mg/kg once daily) was 1/10. Besides, the tumor stabilization result in assay [13] (30 mg/kg once daily) is “tumor stabilization for all mice”. Further, the “partial tumor regression (mice)” value in [13] (100 mg/kg once daily) and in assay [13] (100 mg/kg twice daily (200 mg/kg/day)) was 8/10 throughout.
